Measurements: US7713935B2, “Compounds that modulate TRH actions” (The Provost, Fellows and Scholars of The College of The …, priority 2004, dated 2010)
Where two headings read alike, the source gives them in different places. Values belong to the compound of their own block, whether it stands above or below them. Square brackets hold non-standard residues; d marks the D form. Peptide text beside a SMILES is read from it. * marks the point of attachment. AMC = Cc1cc(=O)oc2cc(N*)ccc12; pGlu = O=C1CC[C@@H](C(=O)O)N1

How the values were obtained:
[1] = target: native rat cortical TRH receptors; experiment: TRH receptor binding: displacement of [3H][3-Me-His2]TRH from rat cortical membranes; settings: for Affinity for [3H]-3MeHis-TRH-labelled receptors in rat brain cortex: result in words; for Affinity for [3H]-3MeHis-TRH-labelled receptors compared with 3MeHis-TRH: rat brain cortex
Description: It cannot be ruled out, however, that [^3H][3-Me-His^2]TRH is binding to a TRH receptor subtype in rat brain cortex that has yet to be identified.
Radioligand binding assays were carried out to examine the ability of these TRH-DE inhibitors to bind to TRH receptors. This was achieved by measuring the ability of the inhibitors to displace [^3H][3-Me-His^2]TRH binding to rat cortical membranes. Membranes were prepared from the cortex of male Wistar rats. The binding of [^3H]-3MeHis-TRH to TRH receptors in cortical membranes was measured as described previously (Kelly et al., 2002) using 10 mM TRH to define non-specific binding. The affinity of TRH-DE inhibitors for TRH receptors was determined in competition experiments and data were analyzed using GraphPad Prism. […] The rank order of potency of D isomer inhibitors was JAK4-D>JAK2-D>JAK1-D.

[2] = target: T1, TRH-DE purified from porcine brain (Sus scrofa, UniProt A0A287AP33); experiment: Inhibition of purified TRH-DE (kinetic/fluorometric assays); type: biochemical; settings: read-out: Ki values for TRH-DE inhibitors
T1 construct: TRH-DE purified from porcine brain; from tissue; host or cells: porcine brain
From the text: The binding capacity offered by in the vicinity of the S2′ binding site of TRH-DE was studied. […] The L-amino acids in these peptides were replaced with D-amino acids. The vast majority of naturally occurring polypeptides are composed of L-amino acids and mammalian proteolytic enzymes are designed to work with this stereochemistry. Thus, replacement of L-amino acids by D-amino acids is used in the art in an endeavor to confer stability to proteolytic degradation as described in U.S. Pat. No. 6,703,366. It is recognized by the art that this type of replacement, however, may lead to loss of peptide specificity and or activity as noted by U.S. Pat. No. 4,587,233, Sato et al. 1987 and Fischer 2003, and thus the effect of the replacement is unpredictable. […] Replacement of L-amino acids by D-amino acids may also be used to scan the relative importance of the stereochemistry of particular functional groups in a peptide structure and also that of local structures within the peptide (Hruby, 2002).
The ability of compounds to be hydrolysed by and to inhibit TRH-DE purified from porcine brain was determined using kinetic assays as previously described (Kelly et al. 1999, 2000a, 2000b, U.S. Pat. application 20030166944). […] [JAK 1, JAK 2, JAK 3, JAK 4 and JAK 5 are described in U.S. Pat. App. No. 20030166944.]
HPLC analysis was used, as previously described (Kelly et al. 2000a, U.S. Pat. App. 20030166944), to assess the ability of each compound listed above to act as a TRH-DE substrate. […] Compounds were then screened for their ability to inhibit TRH-DE purified from porcine brain using fluorometric assays, as previously described (Kelly et al. 2000a, U.S. Pat. App. 20030166944).

Male Wistar rats [3] = experiment: Rat behaviour total activity score; type: in vivo
Description: These include, increased locomotor activity (21-22), induction of blinking and forepaw licking and body shaking behavior, often referred to as 'wet dog shakes' (WDS) Kelly et al., 2000b). […] Male Wistar rats (150-250 g) were placed in individual perspex boxes and allowed to acclimatize for 20 min. […] Individual behaviors were recorded for 30 sec at 5 min intervals by an observer who was blind to treatment. Behaviors during each observation period were summed to yield a total activity score.

Male Wistar rats [4] = experiment: Antagonism of barbiturate-induced sleep time (analeptic effect); type: in vivo, rat; settings: 1 mg/kg i.v.; for Sleep time: 10 min after sodium pentobarbitone 30 mg/kg i.p., mean ± SEM; for Effect on barbiturate-induced sleep time: result in words
Description: The antagonism of barbiturate-induced anesthesia is a well-recognized pharmacological effect of TRH and is used in the art to indicate successful central delivery and activity of TRH analogues. […] Male Wistar rats (150-250 g) were anaesthetized with sodium pentobarbitone (30 mg/kg i.p.). […] Animals were placed on their backs and sleep times recorded. From Table III it can be seen that both […] [table]

Male Wistar rats [5] = experiment: Wet dog shaking (WDS) behavior; type: in vivo, rat
[6] = system: native rat cortical TRH receptors; settings: cited from earlier work; for Affinity compared to TRH for [3H]-3MeHis-TRH-labelled receptors in rat cortical membranes: previous studies (Kelly et al., 2002)
Male Wistar rats [7] = settings: Kelly et al., 2000b; cited from earlier work
[8] = L isomer, JAK compounds dissolved in DMSO, read-out: Ki, inhibition of [3H]-3MeHis-TRH binding, X is L isomer aa
[9] = D isomer, JAK compounds dissolved in DMSO, read-out: Ki, inhibition of [3H]-3MeHis-TRH binding, X is D isomer aa

T1 sequence (A0A287AP33 1-1066): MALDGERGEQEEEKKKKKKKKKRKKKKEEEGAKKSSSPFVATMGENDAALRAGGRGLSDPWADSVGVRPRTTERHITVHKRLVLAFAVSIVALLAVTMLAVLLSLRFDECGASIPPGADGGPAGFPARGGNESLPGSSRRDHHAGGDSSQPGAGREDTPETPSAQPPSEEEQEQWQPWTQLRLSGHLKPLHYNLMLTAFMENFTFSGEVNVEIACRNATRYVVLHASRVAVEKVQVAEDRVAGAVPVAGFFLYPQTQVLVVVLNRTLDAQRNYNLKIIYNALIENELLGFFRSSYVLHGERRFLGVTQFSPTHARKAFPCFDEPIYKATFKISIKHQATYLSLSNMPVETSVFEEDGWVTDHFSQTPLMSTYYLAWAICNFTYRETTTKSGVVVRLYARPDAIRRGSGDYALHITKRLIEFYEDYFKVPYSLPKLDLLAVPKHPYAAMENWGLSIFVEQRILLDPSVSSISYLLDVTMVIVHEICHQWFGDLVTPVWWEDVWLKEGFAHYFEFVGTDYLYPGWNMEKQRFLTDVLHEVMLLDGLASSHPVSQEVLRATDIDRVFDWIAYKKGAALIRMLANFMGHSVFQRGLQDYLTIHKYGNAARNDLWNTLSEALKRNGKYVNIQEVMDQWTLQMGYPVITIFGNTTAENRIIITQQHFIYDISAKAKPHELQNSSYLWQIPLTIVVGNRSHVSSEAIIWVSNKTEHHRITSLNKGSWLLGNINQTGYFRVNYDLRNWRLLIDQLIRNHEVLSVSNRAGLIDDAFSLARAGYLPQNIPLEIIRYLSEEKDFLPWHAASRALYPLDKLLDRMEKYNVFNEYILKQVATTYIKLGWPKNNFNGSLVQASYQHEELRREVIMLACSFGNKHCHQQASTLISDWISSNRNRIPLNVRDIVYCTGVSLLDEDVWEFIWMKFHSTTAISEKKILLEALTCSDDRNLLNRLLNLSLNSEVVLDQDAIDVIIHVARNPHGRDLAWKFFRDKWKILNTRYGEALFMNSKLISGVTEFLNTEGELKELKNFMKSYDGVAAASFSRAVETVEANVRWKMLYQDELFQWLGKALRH

Compound: Cn1cncc1C[C@H](NC(=O)[C@@H]1CCC(=O)N1)C(=O)N1CCC[C@H]1C(N)=O [3-MeHis-TRH, reference compound]
Ki ([1]; in DMSO, read-out: Ki, inhibition of [3H]-3MeHis-TRH binding): 74 nM
Ki ([1]; in saline, read-out: Ki, inhibition of [3H]-3MeHis-TRH binding): 1.9 nM

Compound: Cc1cc(=O)oc2cc(NC(=O)[C@@H]3CCCN3C(=O)[C@H](CC(N)=O)NC(=O)[C@@H]3CCC(=O)N3)ccc12 [JAK 5, Glp-Asn-Pro-AMC] ([pGlu]-Asn-Pro-{AMC})
Affinity compared to TRH for [3H]-3MeHis-TRH-labelled receptors in rat cortical membranes [6]: relatively low affinity
Ki [2]: 970 nM
Effect on central effects of TRH in vivo (Male Wistar rats [7]): amplify

Compound: NC(=O)C[C@H](NC(=O)[C@@H]1CCC(=O)N1)C(=O)N1CCC[C@H]1C(N)=O [JAK 6, Glp-Asn-ProNH2] ([pGlu]-Asn-Pro-NH2)
Affinity compared to TRH for [3H]-3MeHis-TRH-labelled receptors in rat cortical membranes [6]: relatively low affinity
Ki [2]: 16100 nM

Compound: NC(=O)[C@@H]1CCCN1C(=O)[C@H](Cc1c[nH]cn1)NC(=O)[C@@H]1CCC(=O)N1 [TRH, pyroglutamyl-histidyl-prolineamide, reference compound]
Effect on rat activity (Male Wistar rats [3]; TRH 5-50 mg/kg): dose-dependent increase
Sleep time (Male Wistar rats [4]): 54.5 ± 4.3 min
Effect on barbiturate-induced sleep time (Male Wistar rats [4]): significantly (p<0.05, Student's t-test) reduce
Effect on WDS (Male Wistar rats [5]; TRH i.p.): concentration-dependent increase
Persistence of effects on WDS (Male Wistar rats [5]; TRH i.p.): approximately 20 min
Time of maximum numbers of WDS post administration (Male Wistar rats [5]; TRH i.p.): 5 min
Ki [1, 8]: 22 nM

Compound: [^3H][3-Me-His^2]TRH [reference compound]
Kd ([6]; single population of high affinity sites (Sharif 1989, Kelly et al., 2002), read-out: Kd on rat brain cortical membranes): ~5 nM

Compound: [pGlu]NP[dY][dW]-NH2
Effect on barbiturate-induced sleep time (Male Wistar rats [4]): significantly (p<0.05, Student's t-test) reduce

Further lines, with some results ahead:

Ki [2]: 1 nM
Ki [1, 8]: > 100000 nM
Affinity for [3H]-3MeHis-TRH-labelled receptors in rat brain cortex [1]: low affinity
Compound: Cc1cc(=O)oc2cc(NC(=O)[C@H](Cc3c[nH]c4ccccc34)NC(=O)[C@H](Cc3c[nH]c4ccccc34)NC(=O)[C@H](Cc3ccc(O)cc3)NC(=O)[C@@H]3CCCN3C(=O)[C@H](CC(N)=O)NC(=O)[C@@H]3CCC(=O)N3)ccc12 [JAK 1, Glp-Asn-Pro-LTyr-LTrp-LTrp-AMC] ([pGlu]NPYWW-{AMC})

Ki [2]: 30 nM
Ki [1, 9]: 60 nM
Compound: Cc1cc(=O)oc2cc(NC(=O)[C@@H](Cc3c[nH]c4ccccc34)NC(=O)[C@@H](Cc3c[nH]c4ccccc34)NC(=O)[C@@H](Cc3ccc(O)cc3)NC(=O)[C@@H]3CCCN3C(=O)[C@H](CC(N)=O)NC(=O)[C@@H]3CCC(=O)N3)ccc12 [JAK 1D, Glp-Asn-Pro-DTyr-DTrp-DTrpAMC] ([pGlu]NP[dY][dW][dW]-{AMC})

Ki [1, 8]: ~40000 nM
Affinity for [3H]-3MeHis-TRH-labelled receptors in rat brain cortex [1]: low affinity
Compound: Cc1cc(=O)oc2cc(NC(=O)[C@H](Cc3c[nH]c4ccccc34)NC(=O)[C@H](Cc3ccc(O)cc3)NC(=O)[C@@H]3CCCN3C(=O)[C@H](CC(N)=O)NC(=O)[C@@H]3CCC(=O)N3)ccc12 [JAK 2, Glp-Asn-Pro-LTyr-LTrp-AMC] ([pGlu]NPYW-{AMC})

Ki [2]: 100 nM
Ki [1, 9]: 3.7 nM
Affinity for [3H]-3MeHis-TRH-labelled receptors compared with 3MeHis-TRH [1]: greater affinity
Compound: Cc1cc(=O)oc2cc(NC(=O)[C@@H](Cc3c[nH]c4ccccc34)NC(=O)[C@@H](Cc3ccc(O)cc3)NC(=O)[C@@H]3CCCN3C(=O)[C@H](CC(N)=O)NC(=O)[C@@H]3CCC(=O)N3)ccc12 [JAK 2D, Glp-Asn-Pro-DTyr-DTrpAMC] ([pGlu]NP[dY][dW]-{AMC})

Ki [2]: 730 nM
Compound: NC(=O)C[C@H](NC(=O)[C@@H]1CCC(=O)N1)C(=O)N1CCC[C@H]1C(=O)N[C@@H](Cc1ccc(O)cc1)C(=O)N[C@@H](Cc1c[nH]c2ccccc12)C(=O)N[C@@H](Cc1c[nH]c2ccccc12)C(N)=O [JAK 3, Glp-Asn-Pro-LTyr-LTrp-LTrpNH2] ([pGlu]NPYWW-NH2)

Ki [1, 8]: 120 nM
Compound: NC(=O)C[C@H](NC(=O)[C@@H]1CCC(=O)N1)C(=O)N1CCC[C@H]1C(=O)N[C@@H](Cc1ccc(O)cc1)C(=O)N[C@@H](Cc1c[nH]c2ccccc12)C(N)=O [JAK 4, Glp-Asn-Pro-LTyr-LTrp-NH2] ([pGlu]NPYW-NH2)

Ki [2]: 110 nM
Ki [1, 9]: 5.5 nM
Affinity for [3H]-3MeHis-TRH-labelled receptors compared with 3MeHis-TRH [1]: greater affinity
Compound: NC(=O)C[C@H](NC(=O)[C@@H]1CCC(=O)N1)C(=O)N1CCC[C@H]1C(=O)N[C@H](Cc1ccc(O)cc1)C(=O)N[C@H](Cc1c[nH]c2ccccc12)C(N)=O [JAK 4D, Glp-Asn-Pro-D-Tyr-D-TrpNH2] ([pGlu]NP[dY][dW]-NH2)
Responses on co-administration with 10 mg/kg TRH (Male Wistar rats [3]; 0.1 mg/kg): equivalent to those achieved by 20 and 50 mg/kg TRH
Effect of pre-treatment on stimulatory effect of 10 mg/kg TRH (Male Wistar rats [3]; 0.1 mg/kg, 15-20 min after TRH): enhanced
Activity response compared with TRH (Male Wistar rats [3]; 1 mg/kg JAK4-D): comparable to that produced by TRH 5 mg/kg
Effect of pre-treatment on responses to 10 mg/kg TRH (Male Wistar rats [3]; 1 mg/kg, entire observation period): enhanced and prolonged
Effect on spontaneous rat activity scores vs vehicle (Male Wistar rats [3]; 0.1-5 mg/kg i.p.): transient increase
Sleep time (Male Wistar rats [4]): 54.1 ± 2.4 min
Effect of pre-treatment on peak WDS response to 10 mg/kg TRH (Male Wistar rats [5]; 1 mg/kg): enhanced
Occurrence of WDS (Male Wistar rats [5]; 1 mg/kg): comparable with the response produced by 5 mg/kg TRH

Ki [2]: 19600 nM
Ki [1, 9]: 1000 nM
Compound: NC(=O)[C@@H](Cc1c[nH]c2ccccc12)NC(=O)[C@@H](Cc1ccc(O)cc1)NC(=O)[C@@H]1CCCN1C(=O)[C@H](Cc1c[nH]cn1)NC(=O)[C@@H]1CCC(=O)N1 [JAK 7D, Glp-His-Pro-D-Tyr-D-TrpNH2] ([pGlu]HP[dY][dW]-NH2)
